Measured values taken from PubChem BioAssay AID1963839 (Molecular Pharmacology Branch, DTP, NCI, 2024).

System: 817829-284-R-J1-PDC complex spheroid viability
Assay: Anticancer human tumor 817829-284-R-J1-PDC patient-derived colon adenocarcinoma cell line growth inhibition [POLQ]
Settings: for IC50: curve of first compound; for viability, T/C: stronger effect = lower value
Method in brief: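 Three-cell-type spheroids modelling solid tumor plus stroma served as the readout system; POL inhibitors were tested individually and in combination, concentration ranges set by clinical Cmax where known.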

[1] = second compound 0.0316 µM, first compound 0.0316 µM
[2] = second compound 0.0316 µM, first compound 0.1 µM
[3] = second compound 0.0316 µM, first compound 0.316 µM
[4] = second compound 0.0316 µM, first compound 1 µM
[5] = second compound 0.0316 µM, first compound 3.16 µM
[6] = second compound 0.0316 µM, first compound 10 µM
[7] = second compound 0.1 µM, first compound 0.0316 µM
[8] = second compound 0.1 µM, first compound 0.1 µM
[9] = second compound 0.1 µM, first compound 0.316 µM
[10] = second compound 0.1 µM, first compound 1 µM
[11] = second compound 0.1 µM, first compound 3.16 µM
[12] = second compound 0.1 µM, first compound 10 µM
[13] = second compound 0.316 µM, first compound 0.0316 µM
[14] = second compound 0.316 µM, first compound 0.1 µM
[15] = second compound 0.316 µM, first compound 0.316 µM
[16] = second compound 0.316 µM, first compound 1 µM
[17] = second compound 0.316 µM, first compound 3.16 µM
[18] = second compound 0.316 µM, first compound 10 µM
[19] = second compound 1 µM, first compound 0.0316 µM
[20] = second compound 1 µM, first compound 0.1 µM
[21] = second compound 1 µM, first compound 0.316 µM
[22] = second compound 1 µM, first compound 1 µM
[23] = second compound 1 µM, first compound 3.16 µM
[24] = second compound 1 µM, first compound 10 µM
[25] = second compound 3.16 µM, first compound 0.0316 µM
[26] = second compound 3.16 µM, first compound 0.1 µM
[27] = second compound 3.16 µM, first compound 0.316 µM
[28] = second compound 3.16 µM, first compound 1 µM
[29] = second compound 3.16 µM, first compound 3.16 µM
[30] = second compound 3.16 µM, first compound 10 µM
[31] = second compound 10 µM, first compound 0.0316 µM
[32] = second compound 10 µM, first compound 0.1 µM
[33] = second compound 10 µM, first compound 0.316 µM
[34] = second compound 10 µM, first compound 1 µM
[35] = second compound 10 µM, first compound 3.16 µM
[36] = second compound 10 µM, first compound 10 µM
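Note: spheroids exposed to compounds for 7 days.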
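Throughout, for viability, T/C: 100% = DMSO vehicle-treated spheroids.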

For `CNCc1ccc(-c2[nH]c3cc(F)cc4c3c2CCNC4=O)cc1` + Cc1cccc(N(C)C(=O)C2C(O)CCN2c2nc(C)cc(C(F)(F)F)c2C#N)c1, the IC50 (second compound 0.0316 µM) was 2.24 µM, the IC50 (second compound 0.1 µM) was 7.64 µM and the IC50 (second compound 0.316 µM) was 3.41 µM. The IC50 (second compound 1 µM) was 2.69 µM, the IC50 (second compound 3.16 µM) was 3.32 µM and the IC50 (second compound 10 µM) was 3.84 µM. The viability, T/C [1] was 87.5%, the viability, T/C [2] was 67.2% and the viability, T/C [3] was 68.4%. For the same compound, the viability, T/C [4] was 58.2%, the viability, T/C [5] was 49.9% and the viability, T/C [6] was 33.9%. The viability, T/C [7] was 74.9%, the viability, T/C [8] was 67.8% and the viability, T/C [9] was 86.7%. The viability, T/C [10] was 60.4%, the viability, T/C [11] was 74.7% and the viability, T/C [12] was 43%. The viability, T/C [13] was 97.8%, the viability, T/C [14] was 76.5% and the viability, T/C [15] was 70.5%. It also gave a viability, T/C [16] of 66.6%, a viability, T/C [17] of 53.7% and a viability, T/C [18] of 36.3%. The viability, T/C [19] was 104%, the viability, T/C [20] was 71.9% and the viability, T/C [21] was 86.4%. The viability, T/C [22] was 55.9%, the viability, T/C [23] was 51.8% and the viability, T/C [24] was 33.1%. The viability, T/C [25] was 82.4%, the viability, T/C [26] was 54.2% and the viability, T/C [27] was 79.1%. For the same compound, the viability, T/C [28] was 77.9%, the viability, T/C [29] was 50.9% and the viability, T/C [30] was 30.3%. It also gave a viability, T/C [31] of 70.9%, a viability, T/C [32] of 78.1% and a viability, T/C [33] of 67.1%. It also gave a viability, T/C [34] of 62.5%, a viability, T/C [35] of 55.6% and a viability, T/C [36] of 31.4%.
`COc1ccc([C@@H](O)c2cc(-c3ncnc4cc(N5CCOCC5)ccc34)c(F)cc2Cl)nn1` + Cc1cccc(N(C)C(=O)C2C(O)CCN2c2nc(C)cc(C(F)(F)F)c2C#N)c1 showed an IC50 (second compound 0.0316 µM) of 0.715 µM, an IC50 (second compound 0.1 µM) of 0.719 µM and an IC50 (second compound 0.316 µM) of 0.932 µM. The IC50 (second compound 1 µM) was 1.22 µM, the IC50 (second compound 3.16 µM) was 0.474 µM and the IC50 (second compound 10 µM) was 0.751 µM. The viability, T/C [1] was 112%, the viability, T/C [2] was 112% and the viability, T/C [3] was 72%. The viability, T/C [4] was 42.3%, the viability, T/C [5] was 22.3% and the viability, T/C [6] was 17.9%. For the same compound, the viability, T/C [7] was 103%, the viability, T/C [8] was 80.3% and the viability, T/C [9] was 66.9%. The viability, T/C [10] was 40.8%, the viability, T/C [11] was 32.7% and the viability, T/C [12] was 19.9%. The viability, T/C [13] was 107%, the viability, T/C [14] was 74.6% and the viability, T/C [15] was 102%. It also gave a viability, T/C [16] of 47.1%, a viability, T/C [17] of 28.3% and a viability, T/C [18] of 15.5%. The viability, T/C [19] was 111%, the viability, T/C [20] was 105% and the viability, T/C [21] was 92.2%. For the same compound, the viability, T/C [22] was 54.5%, the viability, T/C [23] was 28.1% and the viability, T/C [24] was 21.9%. It also gave a viability, T/C [25] of 98.6%, a viability, T/C [26] of 130% and a viability, T/C [27] of 62%. The viability, T/C [28] was 38.3%, the viability, T/C [29] was 27% and the viability, T/C [30] was 18.6%. For the same compound, the viability, T/C [31] was 92%, the viability, T/C [32] was 81% and the viability, T/C [33] was 70.8%. It also gave a viability, T/C [34] of 41.4%, a viability, T/C [35] of 26.3% and a viability, T/C [36] of 13.5%.
Work on `Cn1ncnc1[C@H]1c2n[nH]c(=O)c3cc(F)cc(c23)N[C@@H]1c1ccc(F)cc1` + Cc1cccc(N(C)C(=O)C2C(O)CCN2c2nc(C)cc(C(F)(F)F)c2C#N)c1 yielded an IC50 (second compound 0.0316 µM) of 0.0102 µM, an IC50 (second compound 0.1 µM) of 0.0179 µM and an IC50 (second compound 0.316 µM) of 0.0142 µM. The IC50 (second compound 1 µM) was 0.00663 µM, the IC50 (second compound 3.16 µM) was 0.012 µM and the IC50 (second compound 10 µM) was 0.00659 µM. It also gave a viability, T/C (second compound 0.0316 µM, first compound 0.000316 µM) of 79.7%, a viability, T/C (second compound 0.0316 µM, first compound 0.001 µM) of 88.5% and a viability, T/C (second compound 0.0316 µM, first compound 0.00316 µM) of 79%. It also gave a viability, T/C (second compound 0.0316 µM, first compound 0.01 µM) of 48.3%, a viability, T/C [1] of 39.4% and a viability, T/C [2] of 25.8%. The viability, T/C (second compound 0.1 µM, first compound 0.000316 µM) was 103%, the viability, T/C (second compound 0.1 µM, first compound 0.001 µM) was 93.2% and the viability, T/C (second compound 0.1 µM, first compound 0.00316 µM) was 58.9%. For the same compound, the viability, T/C (second compound 0.1 µM, first compound 0.01 µM) was 69%, the viability, T/C [7] was 39.2% and the viability, T/C [8] was 30%. The viability, T/C (second compound 0.316 µM, first compound 0.000316 µM) was 65.8%, the viability, T/C (second compound 0.316 µM, first compound 0.001 µM) was 82.8% and the viability, T/C (second compound 0.316 µM, first compound 0.00316 µM) was 85.4%. For the same compound, the viability, T/C (second compound 0.316 µM, first compound 0.01 µM) was 57.6%, the viability, T/C [13] was 36.8% and the viability, T/C [14] was 28.6%. It also gave a viability, T/C (second compound 1 µM, first compound 0.000316 µM) of 89.3%, a viability, T/C (second compound 1 µM, first compound 0.001 µM) of 97.8% and a viability, T/C (second compound 1 µM, first compound 0.00316 µM) of 68.8%. For the same compound, the viability, T/C (second compound 1 µM, first compound 0.01 µM) was 42.5%, the viability, T/C [19] was 46.1% and the viability, T/C [20] was 29.5%. It also gave a viability, T/C (second compound 3.16 µM, first compound 0.000316 µM) of 99.1%, a viability, T/C (second compound 3.16 µM, first compound 0.001 µM) of 80% and a viability, T/C (second compound 3.16 µM, first compound 0.00316 µM) of 72.4%. It also gave a viability, T/C (second compound 3.16 µM, first compound 0.01 µM) of 47.4%, a viability, T/C [25] of 41.3% and a viability, T/C [26] of 28.4%. For the same compound, the viability, T/C (second compound 10 µM, first compound 0.000316 µM) was 64.5%, the viability, T/C (second compound 10 µM, first compound 0.001 µM) was 86% and the viability, T/C (second compound 10 µM, first compound 0.00316 µM) was 54.8%. For the same compound, the viability, T/C (second compound 10 µM, first compound 0.01 µM) was 47.1%, the viability, T/C [31] was 30.4% and the viability, T/C [32] was 29.7%.
Compound `O=C(c1cc(Cc2n[nH]c(=O)c3ccccc23)ccc1F)N1CCN(C(=O)C2CC2)CC1` + Cc1cccc(N(C)C(=O)C2C(O)CCN2c2nc(C)cc(C(F)(F)F)c2C#N)c1 has an IC50 (second compound 0.0316 µM) of 4.01 µM, an IC50 (second compound 0.1 µM) of 1.86 µM and an IC50 (second compound 0.316 µM) of 2.63 µM. For the same compound, the IC50 (second compound 1 µM) was 2.91 µM, the IC50 (second compound 3.16 µM) was 3.65 µM and the IC50 (second compound 10 µM) was 4.54 µM. It also gave a viability, T/C [1] of 75.4%, a viability, T/C [2] of 97.7% and a viability, T/C [3] of 89.7%. The viability, T/C [4] was 69.4%, the viability, T/C [5] was 59.6% and the viability, T/C [6] was 21.8%. It also gave a viability, T/C [7] of 84.1%, a viability, T/C [8] of 75.5% and a viability, T/C [9] of 93.3%. The viability, T/C [10] was 60.7%, the viability, T/C [11] was 42.4% and the viability, T/C [12] was 28.9%. The viability, T/C [13] was 119%, the viability, T/C [14] was 61.2% and the viability, T/C [15] was 78.2%. It also gave a viability, T/C [16] of 82.7%, a viability, T/C [17] of 44.5% and a viability, T/C [18] of 26.3%. It also gave a viability, T/C [19] of 104%, a viability, T/C [20] of 100% and a viability, T/C [21] of 74.2%. The viability, T/C [22] was 66.4%, the viability, T/C [23] was 54.2% and the viability, T/C [24] was 26.6%. The viability, T/C [25] was 108%, the viability, T/C [26] was 111% and the viability, T/C [27] was 81.6%. For the same compound, the viability, T/C [28] was 64.4%, the viability, T/C [29] was 60.3% and the viability, T/C [30] was 30.2%. It also gave a viability, T/C [31] of 115%, a viability, T/C [32] of 87.6% and a viability, T/C [33] of 104%. The viability, T/C [34] was 76.2%, the viability, T/C [35] was 64.6% and the viability, T/C [36] was 25.2%.
